Results as given in patent US20240343704A1, “HALO-SUBSTITUTED AMINO PYRIDINE COMPOUNDS AS INHIBITORS OF THE HAEMATOPOIETIC PROGENITOR KINASE 1 (HPK1)” (priority 2021, published 2024).
Read-outs that look alike come from different tables or passages of the source.

Tests used:
[1] = target: T1, Recombinant (1-346) HPK1 (h) (Homo sapiens, UniProt Q92918); experiment: HPK1 Human STE Kinase Enzymatic Radiometric Assay; assay type: biochemical; conditions: read-out: HPK1 IC50 nM Range*
T1 construct: Recombinant (1-346) HPK1 (h) is incubated with 8 mM MOPS pH 7.0
T1 sequence (Q92918 1-346): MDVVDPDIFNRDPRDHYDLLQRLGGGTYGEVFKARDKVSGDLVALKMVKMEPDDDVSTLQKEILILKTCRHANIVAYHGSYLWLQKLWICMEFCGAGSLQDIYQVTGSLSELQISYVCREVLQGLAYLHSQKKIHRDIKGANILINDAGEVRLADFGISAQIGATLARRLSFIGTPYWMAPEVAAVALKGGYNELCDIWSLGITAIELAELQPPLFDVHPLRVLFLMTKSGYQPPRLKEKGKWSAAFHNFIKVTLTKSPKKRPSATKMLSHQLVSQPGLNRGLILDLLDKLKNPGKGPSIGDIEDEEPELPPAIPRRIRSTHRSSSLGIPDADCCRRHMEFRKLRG
Method: A stock solution of 10 mM of test compound is prepared in DMSO. The compound plate was prepared by 3-fold and 9-point serial dilutions. […] The reaction is initiated by The addition of the Mg/ATP mix. After incubation for 40 minutes at RT, the reaction is stopped by the addition of phosphoric acid to a concentration of 0.5%.

Lck (h) = Lck (h) (Homo sapiens, UniProt P06239); experiment: Lck Human  Kinase Enzymatic Radiometric Assay; assay type: biochemical
Lck (h), sequence (P06239 whole entry): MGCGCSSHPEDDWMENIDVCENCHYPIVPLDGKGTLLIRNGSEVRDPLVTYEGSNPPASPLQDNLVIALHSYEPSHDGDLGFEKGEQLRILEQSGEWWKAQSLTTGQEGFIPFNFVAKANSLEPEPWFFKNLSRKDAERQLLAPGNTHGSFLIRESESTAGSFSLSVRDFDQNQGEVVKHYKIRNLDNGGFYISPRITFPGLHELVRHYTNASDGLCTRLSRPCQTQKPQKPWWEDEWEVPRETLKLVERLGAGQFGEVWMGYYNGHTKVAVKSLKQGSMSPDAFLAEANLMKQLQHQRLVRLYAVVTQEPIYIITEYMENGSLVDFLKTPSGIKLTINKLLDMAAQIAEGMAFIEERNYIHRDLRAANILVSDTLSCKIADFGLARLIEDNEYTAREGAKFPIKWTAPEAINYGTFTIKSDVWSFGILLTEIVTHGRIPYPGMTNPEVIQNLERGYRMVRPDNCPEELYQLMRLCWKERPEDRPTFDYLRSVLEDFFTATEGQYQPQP
Procedure, shortened: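 Substrate 33P-incorporation measured by scintillation counting after spotting on P30 filtermat and phosphoric acid washes. Human Lck reacted 40 min at RT in 50 mM Tris pH 7.5 with 10 mM MgAcetate, [gamma-33P]-ATP, 250 uM Cdc2 peptide, 0.1 mM EGTA and 0.1 mM Na3VO4.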

Structure (SMILES)	IC50 [1]	IC50 (Lck (h); read-out: Lck IC50 nM Range*)	IC50 (Lck (h); read-out: Lck IC50 nM Range* (number printed instead of a class))
Nc1nc(F)c(-c2ccc(N3CCN4CCOCC4C3)cc2)cc1-c1ccc2c(c1)CCNC2=O (centres unmarked) [I-23, 6-(2-amino-6-fluoro-5-(4-(hexahydropyrazino[2,1-c][1,4]oxazin-8(1H)-yl)phenyl)pyridin-3-yl)-3,4-dihydroisoquinolin-1(2H)-one]	0.1 to 10 nM	> 1000 nM	
CN1CC=C(c2ccc(-c3cc(-c4cc5c(cc4F)C(=O)NCC5)c(N)nc3Cl)cc2)CC1 [I-232, 6-(2-amino-6-chloro-5-(4-(1-methyl-1,2,3,6-tetrahydropyridin-4-yl)phenyl)pyridin-3-yl)-7-fluoro-3,4-dihydroisoquinolin-1(2H)-one]	11 to 100 nM	> 1000 nM	
Cc1cc(-c2cc(-c3ccc4c(c3)CCNC4=O)c(N)nc2F)cc2c1CCNC2 [I-431, 6-(2-amino-6-fluoro-5-(5-methyl-1,2,3,4-tetrahydroisoquinolin-7-yl)pyridin-3-yl)-3,4-dihydroisoquinolin-1(2H)-one]	0.1 to 10 nM	> 1000 nM	
COCCN1CCC(O)(c2ccc(-c3cc(-c4ccc5c(c4)CCNC5=O)c(N)nc3F)cc2)CC1 [I-167, 6-(2-amino-6-fluoro-5-(4-(4-hydroxy-1-(2-methoxyethyl)piperidin-4-yl)phenyl)pyridin-3-yl)-3,4-dihydroisoquinolin-1(2H)-one]	0.1 to 10 nM	> 1000 nM	
CC(C)N1CCN(c2ccc(-c3cc(-c4ccc5c(=O)[nH]ncc5c4)c(N)nc3F)cc2)CC1 [I-363, 6-(2-amino-6-fluoro-5-(4-(4-isopropylpiperazin-1-yl)phenyl)pyridin-3-yl)phthalazin-1(2H)-one]	11 to 100 nM	> 1000 nM	
CC(C)S(=O)(=O)c1ccc(-c2cnc(N)c(-c3ccc4c(c3)CCNC4=O)c2F)cc1 [I-3, 6-(2-amino-4-fluoro-5-(4-(isopropylsulfonyl)phenyl)pyridin-3-yl)-3,4-dihydroisoquinolin-1(2H)-one]	11 to 100 nM	> 1000 nM	
CN(C)CCN(C)c1ccc(-c2cc(-c3ccc4c(c3)CCNC4=O)c(N)nc2F)cc1 [I-45, 6-(2-amino-5-(4-((2-(dimethylamino)ethyl)(methyl)amino)phenyl)-6-fluoropyridin-3-yl)-3,4-dihydroisoquinolin-1(2H)-one]	0.1 to 10 nM	> 1000 nM	
CN1C[C@@H]2C[C@H]1CN2c1ccc(-c2cc(-c3ccc4c(c3)CCNC4=O)c(N)nc2F)cc1 [I-18, 6-(2-amino-6-fluoro-5-(4-(5-methyl-2,5-diazabicyclo[2.2.1]heptan-2-yl)phenyl)pyridin-3-yl)-3,4-dihydroisoquinolin-1(2H)-one]	0.1 to 10 nM	> 1000 nM	
Nc1nc(F)c(-c2ccc(C3CN(CC(F)F)CCO3)cc2)cc1-c1ccc2c(c1)CCNC2=O (centres unmarked) [I-103, 6-(2-amino-5-(4-(4-(2,2-difluoroethyl)morpholin-2-yl)phenyl)-6-fluoropyridin-3-yl)-3,4-dihydroisoquinolin-1(2H)-one]	11 to 100 nM	> 1000 nM	
Nc1nc(F)c(-c2ccc([C@]34CNC[C@H]3C4)cc2)cc1-c1ccc2c(c1)CCNC2=O [I-135, 6-(5-(4-((1R,5S)-3-azabicyclo[3.1.0]hexan-1-yl)phenyl)-2-amino-6-fluoropyridin-3-yl)-3,4-dihydroisoquinolin-1(2H)-one]	0.1 to 10 nM	> 1000 nM	
CN1C[C@H]2C[C@@]2(c2ccc(-c3cc(-c4cc(F)c5c(c4)CCNC5=O)c(N)nc3F)cc2)C1 [I-352, 6-(2-amino-6-fluoro-5-(4-((1R,5S)-3-methyl-3-azabicyclo[3.1.0]hexan-1-yl)phenyl)pyridin-3-yl)-8-fluoro-3,4-dihydroisoquinolin-1(2H)-one]	0.1 to 10 nM	> 1000 nM	
COc1cc(-c2cc(-c3ccc(N4CCN(C(C)C)CC4)cc3)c(F)nc2N)cc2c1C(=O)NCC2 [I-354, 6-(2-amino-6-fluoro-5-(4-(4-isopropylpiperazin-1-yl)phenyl)pyridin-3-yl)-8-methoxy-3,4-dihydroisoquinolin-1(2H)-one]	101 to 1000 nM	11 to 100 nM	
C[C@@H]1CN(c2ccc(-c3cc(-c4ccc5c(c4)CCNC5=O)c(N)nc3F)cc2)C[C@H](C)N1C(=O)OC(C)(C)C [I-284, tert-butyl (2R,6S)-4-(4-(6-amino-2-fluoro-5-(1-oxo-1,2,3,4-tetrahydroisoquinolin-6-yl)pyridin-3-yl)phenyl)-2,6-dimethylpiperazine-1-carboxylate]	11 to 100 nM	> 1000 nM	
COCCN1CCC2(CCc3cc(-c4cc(-c5ccc6c(c5)CCNC6=O)c(N)nc4F)ccc3O2)CC1 [I-216, 6-(2-amino-6-fluoro-5-(1′-(2-methoxyethyl)spiro[chromane-2,4′-piperidin]-6-yl)pyridin-3-yl)-3,4-dihydroisoquinolin-1(2H)-one]	0.1 to 10 nM	> 1000 nM	

Further lines, results first:

IC50 [1]	IC50 (Lck (h); read-out: Lck IC50 nM Range*)	IC50 (Lck (h); read-out: Lck IC50 nM Range* (number printed instead of a class))	Structure (SMILES)
11 to 100 nM	> 1000 nM		CC(=O)N1CCN(c2ccc(-c3cc(-c4cc5c(cc4F)C(=O)NCC5)c(N)nc3F)cn2)CC1 [I-221, 6-(6′-(4-acetylpiperazin-1-yl)-6-amino-2-fluoro-[3,3′-bipyridin]-5-yl)-7-fluoro-3,4-dihydroisoquinolin-1(2H)-one 2,2,2-trifluoroacetate]
11 to 100 nM	> 1000 nM		CC(C)[C@H]1CN(c2ccc(-c3cc(-c4ccc5c(c4)CCNC5=O)c(N)nc3F)c(F)c2)CCO1 [I-12, (S)-6-(2-amino-6-fluoro-5-(2-fluoro-4-(2-isopropylmorpholino)phenyl)pyridin-3-yl)-3,4-dihydroisoquinolin-1(2H)-one]
0.1 to 10 nM	> 1000 nM		Nc1nc(F)c(-c2ccc(N3CCNCC3)cc2)cc1-c1cc2c(cc1F)C(=O)NCC2 [I-172, 6-(2-amino-6-fluoro-5-(4-(piperazin-1-yl)phenyl)pyridin-3-yl)-7-fluoro-3,4-dihydroisoquinolin-1(2H)-one 2,2,2-trifluoroacetate]
0.1 to 10 nM	> 1000 nM		CC(C)N1CCN(c2ccc(-c3cc(-c4cc5c(cc4F)C(=O)NCC5)c(N)nc3F)cc2)CC1 [I-95, 6-(2-amino-6-fluoro-5-(4-(4-isopropylpiperazin-1-yl)phenyl)pyridin-3-yl)-7-fluoro-3,4-dihydroisoquinolin-1(2H)-one]
0.1 to 10 nM		381 nM	CN1CCN(c2ccc(-c3cc(-c4cc5c(cc4F)C(=O)NCC5)c(N)nc3F)cc2C(F)(F)F)CC1 [I-249, 6-(2-amino-6-fluoro-5-(4-(4-methylpiperazin-1-yl)-3-(trifluoromethyl)phenyl)pyridin-3-yl)-7-fluoro-3,4-dihydroisoquinolin-1(2H)-one]
11 to 100 nM	> 1000 nM		Nc1nc(F)c(-c2ccc(S(=O)(=O)N3CCOCC3)cc2)cc1-c1ccc2c(c1)CCNC2=O [I-98, 6-(2-amino-6-fluoro-5-(4-(morpholinosulfonyl)phenyl)pyridin-3-yl)-3,4-dihydroisoquinolin-1(2H)-one]
0.1 to 10 nM	> 1000 nM		CN(C)Cc1nc(-c2cc(-c3cc4c(cc3F)C(=O)NCC4)c(N)nc2F)ccc1N1CCOCC1 [I-427, 6-(6′-amino-6-((dimethylamino)methyl)-2′-fluoro-5-morpholino-[2,3-bipyridin]-5′-yl)-7-fluoro-3,4-dihydroisaoquinolin-1(2H)-one]
0.1 to 10 nM	101 to 1000 nM		CC(C)N1CCN(c2ccc(-c3cc(-c4cc5c(cn4)C(=O)NCC5)c(N)nc3F)cc2)CC1 [I-398, 6-(2-amino-6-fluoro-5-(4-(4-isopropylpiperazin-1-yl)phenyl)pyridin-3-yl)-3,4-dihydro-2,7-naphthyridin-1(2H)-one]
